# What was measured:
# PRPK/TPRKB = biological target: T1, PRPK/TPRKB (Homo sapiens, UniProt Q96S44+Q9Y3C4); experiment: Competition for PRPK/TPRKB binding to the pomalidomide-based affinity reagent (affigel pulldown); conditions: FIG. 4; excess free competitor
# T1 construct: host or cells: HEK-293FT
# Procedure: Cell lysates were prepared from 2×10^8 Jeko-1, Jurkat, or HS-Sultan cells or 5×10^7 HeLa S3 cells per pulldown sample by lysis in 2 mL Buffer B (50 mM HEPES pH 7.5, 5% glycerol, 1.5 mM MgCl2, 150 mM NaCl, 1 mM Na3VO4, 25 mM NaF, 0.4% Nonidet P-40, 1 mM DTT, and 1 Complete Mini EDTA-free protease inhibitor tablet per 10-25 mL Buffer B). Lysates were incubated on ice for 30 mM, followed by 2× freeze-thaw using liquid N2 and 37° C. water bath in polypropylene tubes. Samples were centrifuged at 1800 rpm for 5 mM at 4° C. Supernatants were ultracentrifuged at 55,000 rpm for 1 hr at 4° C. Supernatants were collected and pre-cleared with 10 μL control affigel reagent (affigel-ethanolamine or affigel-PEG linker) by incubation on a rotator for 30 mM at 4° C. Pre-cleared lysates were transferred to Mobicol 1 mL columns with 90 μm pore size frit on ice and centrifuged at 0.1 rcf for 10 sec to separate affigel beads from lysates. Incubations with pre-cleared lysates and excess pomalidomide were performed at a 20-fold excess competitor concentration (500 μM final concentration) on a rotator for 30 mM at 4° C. Subsequently, 10 μL control or pomalidomide-based affigel reagents were added to each sample and pulldowns were performed for 1 hr at 4° C. Lysates and affigel reagents were transferred to Mobicol 1 mL columns with 90 μm pore size frit and affigel beads were washed 3× with 800 μL Buffer B and 2× with 800 μL Buffer A (Buffer B not including 0.4% Nonidet P-40). Columns were centrifuged for 30 sec at 0.1 rcf to remove any remaining wash buffer and then closed with lower plug. Columns were placed in 1.5 mL Low-binding Eppendorf tubes and heated at 50° C. for 30 mM in 40 uL 2×SDS sample buffer with 10 mM DTT to elute bound proteins from affigel reagents. Columns were then opened and eluents were collected in the low-binding Eppendorf tubes by 15 sec centrifugation at 1600 rpm. Samples were applied and resolved on 4-12% SDS-PAGE gels followed by silver staining (SilverQuest Kit, Invitrogen, Carlsbad, Calif.). Bands which were competed by excess actimid competitor but not by DMSO were excised and identified by LC/MS/MS analysis at the Beth Israel Deaconess Medical Center Mass Spectrometry Core Facility (Boston, Mass.).
# C-term Myc-DDK tagged PRPK and C-term Myc-DDK tagged TPRKB proteins were transiently overexpressed from cDNAs (obtained from Origene, Rockville, Md.) in HEK-293FT cells using FuGENE-6 transfection reagent according to the manufacturer's protocol (Roche, Indianapolis, Ind.). One day prior to transfection, 2.5×10^6 HEK-293FT cells were plated per p100 dish. Cells were lysed 48 hr post-transfection in 1-2 mL Buffer B per p100 dish per sample. […] The amount of PRPK and TPRKB captured by each affinity reagent was determined by silver stain and anti-DDK (anti-DDK monoclonal antibody, Origene) Western blot. Competition experiments were also performed using a variety of compounds and derivatives (pomalidomide, lenalidomide, thalidomide, CMPD 31, CMPD 30, CMPD 29).
# [1] = test system: natural killer cells in PBMCs; experiment: Natural killer cell assay (DELFIA NK lytic activity); format: cell-based, human; conditions: FIG. 9; anti-CD3 stimulated PBMCs, 72 hours
# Procedure: On the day of initial treatment, cryopreserved peripheral blood mononuclear cells from a healthy donor (PBMCs; Astarte Biologics) were thawed in RPMI-1640 containing 10% fetal bovine serum, 1% penicillin-streptomycin and 25 mM HEPES buffer (complete medium) at 37° C. PBMCs were centrifuged two times at 1000 rpm to remove residual DMSO and debris and counted on a haemocytometer. Cells were used at a final cell density of 1×10^6 cells per mL in complete medium. […]
# Following the 72 hour treatment, NK cells were assayed for lytic activity using the DELFIA cell cytoxicity assay from Perkin-Elmer according to manufacturer's instructions. […] K562 cells were resuspended in DMEM containing 10% fetal bovine serum and 1% penicillin-streptomycin, counted on a hemacytometer and diluted to 1×10^6 cells per mL. […] Europium solution (200 μL) was added to the supernatants and the plate was placed on a Wallac Victor microplate reader. Following a 15 minute orbital shake at high speed, the plate was read using time-resolved fluorescence (Excitation at 340 nm, Emission at 615 nm; delay 400 μsec; counting window 400 μsec, cycle 1000 μsec). […]
# [2] = test system: IL-2 production by Jurkat and PBMCs; experiment: IL-2 production assay, inhibition with CMPD 31; format: cell-based, human; conditions: FIG. 8; CMPD 31 at final concentration of 10 μM
# Excerpt: This protocol describes the technique to detect the amount of IL-2 produced by Jurkat and PBMCs in 96-well format. This assay was used to calculate IL-2 production EC50 values of lenalidomide, pomalidomide, all derivatives and inhibition with CMPD 31.
# Logarithmically growing Jurkat cells from ATCC (clone E6-1) or frozen and thawed human PBMCs from Astarte (Peripheral Blood Mononuclear Cells, normal Donor 41) were resuspended at 1×10^6 cells/mL in RPMI-1640 medium containing 10% FBS and 1% antibiotic/antimycotic solution. Cells were plated into each well of a 96-well anti-CD3 plate (Becton Dickinson catalogue number #354725) at 1×10^5 cells/100 μl per well. […]
# Compound daughter plates were resuspended in 200 μL of RPMI-1640 medium as a 10× stock and then 20 μL of the 10× stock was added to each anti-CD3 antibody assay plate well with a final volume of 200 μl by the addition of 80 μl of complete media. […] The amount of IL-2 produced was determined by an ELISA assay and was performed in one of two ways as per manufacturer instructions; by a standard ELISA (Enzyme-Linked Immunosorbent Assay) protocol method (Becton Dickinson) or an AlphaLISA protocol (Perkin Elmer). […]
# B cell growth = experiment: Growth inhibition assay, inhibition with CMPD 31; format: cell-based; conditions: FIG. 8; CMPD 31 at final concentration of 10 μM
# Procedure: This protocol describes the technique to perform growth inhibition assays in 96-well format. This assay was used to calculate growth inhibition IC50 values of lenalidomide, pomalidomide, all derivatives and inhibition with CMPD31.
# Cell lines Jurkat, NCI-H929, and JeKo-1 were obtained from ATCC and were maintained by vendor-specified media requirements. Cells were plated in 96-well plates at 3,750 cells per well (Jeko-1, HS-Sultan) or 5,000 cell per well (NCI-H929) in 90 μL of assay growth medium (RPMI-1640, 10% FBS, 1% pen-strep). Cells in plates were allowed to incubate at room temperature for one hour and then transferred to an incubator set at 37° C. and 5% CO2 humidified air overnight.
# Compounds were serially diluted 3-fold in 100% DMSO into duplicate 10-point dose curves using a Biomek FX liquid handler in columns 2 through 11 of a 96-well U-bottom plate. Starting concentrations of compounds was 10 mM. Daughter plates containing 2 μL of the compound dose curves were stamped and stored at −80 C. […]
# Compound and control daughter plates were diluted 100-fold in 200 μl of assay growth medium and then finally diluted 10-fold more into the 96-well cell plates; a final dilution of 1000-fold in 0.1% DMSO for all wells. […] Plates were incubated for 2 hours at 37° C. in 5% CO2 and then plates were read on a Perkin Elmer Victor^3 V plate reader with excitation at 560 nm and emission at 590 nm. […]
# T1 sequence (Q96S44 whole entry, other chains not shown): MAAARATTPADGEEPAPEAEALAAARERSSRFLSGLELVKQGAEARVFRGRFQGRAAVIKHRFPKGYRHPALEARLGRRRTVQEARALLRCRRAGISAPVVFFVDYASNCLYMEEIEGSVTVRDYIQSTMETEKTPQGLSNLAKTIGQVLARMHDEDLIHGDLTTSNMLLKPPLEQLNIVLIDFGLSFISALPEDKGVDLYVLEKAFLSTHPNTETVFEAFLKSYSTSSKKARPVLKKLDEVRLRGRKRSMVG
Compound,compete for PRPK/TPRKB target binding to the pomalidomide-based affinity reagent (PRPK/TPRKB),natural killer cell activation in PBMCs [1],suppression of the activity of lenalidomide and pomalidomide in induction of IL-2 production [2],suppression of the activity of lenalidomide and pomalidomide in inhibition of B cell growth (B cell growth)
Nc1cccc2c1C(=O)N(C1CCC(=O)NC1=O)C2=O (stereo not shown) [pomalidomide],compete,activation,–,–
Nc1ccc2c(c1)C(=O)N(C1CCC(=O)NC1=O)C2=O (stereo not shown) [CMPD 31],compete,–,suppresses,suppresses
O=C1CCC(N2C(=O)c3ccccc3C2=O)C(=O)N1 (stereo not shown) [thalidomide],compete,–,–,–
"CN1C(=O)CCC(N2C(=O)c3cccc(N)c3C2=O)C1=O (stereo not shown) [CMPD 29, 4-Amino-2-(1-methyl-2,6-dioxopiperidin-3-yl)isoindoline-1,3-dione]",compete,–,–,–
Nc1cccc2c1CN(C1CCC(=O)NC1=O)C2=O (stereo not shown) [lenalidomide],compete,activation,–,–
"Nc1cccc2c1C(=O)N([C@H]1CCC(=O)NC1)C2=O [CMPD 30, (S)-4-Amino-2-(6-oxopiperidin-3-yl)isoindoline-1,3-dione]",does not,–,–,–

# — US9193989B2, “PRPK-TPRKB modulators and uses thereof” (TAIHO PHARMACEUTICAL CO., LTD., priority 2010, dated 2015)
